# Values joined by “and” are separate entries in the source; they are usually repeats but may differ in a detail not shown here. Equal values may be shown once.
# Columns and labels:
# [1] = test system: 26_ds (RNA, hairpin) CAAUCGGAUCGAAUUCGAUCCGAUUG; experiment: fluorescent intercalator displacement (FID); conditions: 10 mM KCl + 10 mM potassium phosphate (20 mM K+); pH 7, room temperature; 0.25 µM RNA; 0.5 µM thiazole orange displaced
# [2] = test system: 22_TERRA (RNA, G4) AGGGUUAGGGUUAGGGUUAGGG; experiment: fluorescent intercalator displacement (FID); conditions: 10 mM KCl + 10 mM potassium phosphate (20 mM K+); pH 7, room temperature; 0.25 µM RNA; 0.5 µM thiazole orange displaced
# [3] = test system: 22_TERRA_2Ap7 (RNA, G4, 2-aminopurine at 7) AGGGUUAGGGUUAGGGUUAGGG; experiment: 2-aminopurine fluorescence quenching; conditions: 10 mM KCl + 10 mM potassium phosphate; pH 7.0, room temperature; 2.5 μM RNA; 2.5 or 5 μM compound
# [4] = test system: 22_TERRA_2Ap13 (RNA, G4, 2-aminopurine at 13) AGGGUUAGGGUUAGGGUUAGGG; experiment: 2-aminopurine fluorescence quenching; conditions: 10 mM KCl + 10 mM potassium phosphate; pH 7.0, room temperature; 2.5 μM RNA; 2.5 or 5 μM compound
# [5] = test system: 22_TERRA_2Ap19 (RNA, G4, 2-aminopurine at 19) AGGGUUAGGGUUAGGGUUAGGG; experiment: 2-aminopurine fluorescence quenching; conditions: 10 mM KCl + 10 mM potassium phosphate; pH 7.0, room temperature; 2.5 μM RNA; 2.5 or 5 μM compound
SMILES,DC50 [1],DC50 [2],binding [3],binding [4],binding [5]
C(=NC(COCc1ccc(COCC(N=Cc2ccccn2)c2ccccc2)cc1)c1ccccc1)c1ccccn1.C(=NC(COCc1ccc(COCC(N=Cc2ccccn2)c2ccccc2)cc1)c1ccccc1)c1ccccn1.C(=NC(COCc1ccc(COCC(N=Cc2ccccn2)c2ccccc2)cc1)c1ccccc1)c1ccccn1.[Fe+2].[Fe+2] (stereo not shown) [5a],0.72 ± 0.02 µM and 0.95 ± 0.08 µM,0.47 ± 0.05 µM and 0.57 ± 0.06 µM,–,–,–
C(=NC(COCc1cccc(COCC(N=Cc2ccccn2)c2ccccc2)c1)c1ccccc1)c1ccccn1.C(=NC(COCc1cccc(COCC(N=Cc2ccccn2)c2ccccc2)c1)c1ccccc1)c1ccccn1.C(=NC(COCc1cccc(COCC(N=Cc2ccccn2)c2ccccc2)c1)c1ccccc1)c1ccccn1.[Fe+2].[Fe+2] (stereo not shown) [5b],1.47 ± 0.09 µM and 1.58 ± 0.10 µM,0.41 ± 0.04 µM and 0.27 ± 0.02 µM,yes,yes,yes
C(=NC(COCc1ccc(-c2ccc(COCC(N=Cc3ccccn3)c3ccccc3)cc2)cc1)c1ccccc1)c1ccccn1.C(=NC(COCc1ccc(-c2ccc(COCC(N=Cc3ccccn3)c3ccccc3)cc2)cc1)c1ccccc1)c1ccccn1.C(=NC(COCc1ccc(-c2ccc(COCC(N=Cc3ccccn3)c3ccccc3)cc2)cc1)c1ccccc1)c1ccccn1.[Fe+2].[Fe+2] (stereo not shown) [5c],0.83 ± 0.04 µM and 0.90 ± 0.07 µM,0.59 ± 0.04 µM and 0.69 ± 0.06 µM,–,–,–
C(=NC(COCc1ccc(Oc2ccc(COCC(N=Cc3ccccn3)c3ccccc3)cc2)cc1)c1ccccc1)c1ccccn1.C(=NC(COCc1ccc(Oc2ccc(COCC(N=Cc3ccccn3)c3ccccc3)cc2)cc1)c1ccccc1)c1ccccn1.C(=NC(COCc1ccc(Oc2ccc(COCC(N=Cc3ccccn3)c3ccccc3)cc2)cc1)c1ccccc1)c1ccccn1.[Fe+2].[Fe+2] (stereo not shown) [5d],0.76 ± 0.03 µM and 0.82 ± 0.03 µM,0.59 ± 0.01 µM and 0.61 ± 0.02 µM,–,–,–
C(=NC(COCc1ccc(Sc2ccc(COCC(N=Cc3ccccn3)c3ccccc3)cc2)cc1)c1ccccc1)c1ccccn1.C(=NC(COCc1ccc(Sc2ccc(COCC(N=Cc3ccccn3)c3ccccc3)cc2)cc1)c1ccccc1)c1ccccn1.C(=NC(COCc1ccc(Sc2ccc(COCC(N=Cc3ccccn3)c3ccccc3)cc2)cc1)c1ccccc1)c1ccccn1.[Fe+2].[Fe+2] (stereo not shown) [5e],0.91 ± 0.04 µM and 0.93 ± 0.03 µM,0.68 ± 0.03 µM and 0.66 ± 0.02 µM,–,–,–

# Now from value to compound:
DC50 [1],DC50 [2],binding [3],binding [4],binding [5],SMILES
0.72 ± 0.07 µM and 0.80 ± 0.05 µM,0.47 ± 0.05 µM and 0.60 ± 0.06 µM,–,–,–,C(=NC(COCc1ccc(Cc2ccc(COCC(N=Cc3ccccn3)c3ccccc3)cc2)cc1)c1ccccc1)c1ccccn1.C(=NC(COCc1ccc(Cc2ccc(COCC(N=Cc3ccccn3)c3ccccc3)cc2)cc1)c1ccccc1)c1ccccn1.C(=NC(COCc1ccc(Cc2ccc(COCC(N=Cc3ccccn3)c3ccccc3)cc2)cc1)c1ccccc1)c1ccccn1.[Fe+2].[Fe+2] (stereo not shown) [5f]
0.78 ± 0.04 µM and 0.77 ± 0.05 µM,0.51 ± 0.03 µM and 0.57 ± 0.05 µM,–,–,–,C(=NC(COCc1ccc(CCc2ccc(COCC(N=Cc3ccccn3)c3ccccc3)cc2)cc1)c1ccccc1)c1ccccn1.C(=NC(COCc1ccc(CCc2ccc(COCC(N=Cc3ccccn3)c3ccccc3)cc2)cc1)c1ccccc1)c1ccccn1.C(=NC(COCc1ccc(CCc2ccc(COCC(N=Cc3ccccn3)c3ccccc3)cc2)cc1)c1ccccc1)c1ccccn1.[Fe+2].[Fe+2] (stereo not shown) [5g]
0.87 ± 0.06 µM and 0.89 ± 0.02 µM,0.63 ± 0.04 µM and 0.64 ± 0.05 µM,–,–,–,C(=NC(COCc1ccc2oc3ccc(COCC(N=Cc4ccccn4)c4ccccc4)cc3c2c1)c1ccccc1)c1ccccn1.C(=NC(COCc1ccc2oc3ccc(COCC(N=Cc4ccccn4)c4ccccc4)cc3c2c1)c1ccccc1)c1ccccn1.C(=NC(COCc1ccc2oc3ccc(COCC(N=Cc4ccccn4)c4ccccc4)cc3c2c1)c1ccccc1)c1ccccn1.[Fe+2].[Fe+2] (stereo not shown) [5h]

# From PMC7471899 (2020)
